Experimental findings from patent US20200347136A1, “CONSTRAINED CYCLIC PEPTIDES AS INHIBITORS OF THE CD2:CD58 PROTEIN-PROTEIN INTERACTION FOR TREATMENT OF DISEASES AND AUTOIMMUNE DISORDERS” (Board of Supervisors for the University of Louisiana System, priority 2019, published 2020) are described below.

“Also recorded” adds a separate entry of the source.

In general, IC50 refers to the concentration at which inhibition is half-maximal.

Data set [1] has as its target T1, HER2 ECD protein (domains I-IV) (Homo sapiens, UniProt P04626).
T1 construct: immobilizing HER2 ECD protein (domains I-IV, 620 amino acids)
Kind of data set: SPR binding to immobilized HER2 ECD. To be noted: analyte over immobilized HER2 ECD.
Description: Binding affinities were obtained by global fitting analysis of the titration curve to the 1:1 Langmuir interaction model, and the Kd value was calculated.

The subject of data set [2] is A549 cells. The settings on record: read-out: IC50 A549 (HER2+); antiproliferative activity. As to the method:
(§1) Antiproliferative activity of grafted cyclic peptides. Antiproliferative activity of the designed grafted peptides was evaluated in different HER2-overexpressing cancer cell lines as well as HER2 negative cancer cell lines.
(§2) Table 1. […] Single letter amino acid code was used for peptide sequence. Lower case letters refer to D amino acids and capital letters refer to L amino acids. Chirality of Anapa was indicated with R and S configuration in italics. Antiproliferative activity of peptides in cancer cell lines are given as IC50 in μM. Disulfide bonds between the cysteines are underlined.

Data set [3] relates to BT-474 cells. To be noted: read-out: IC50 BT-474 (HER2+); antiproliferative activity. As to the method: as §1, §2
For data set [4], the system named is Calu-3 cells. To be noted: read-out: IC50 Calu-3 (HER2+); antiproliferative activity. Here is the method:
as §1, §2

Data set [5] has as its system MCF-7 cells. The settings on record: read-out: IC50 MCF-7 (HER2−); antiproliferative activity. Here is the method:
as §1, §2

Data set [6] has as its system MCF-10A cells. The data set can be described thus: Cell Titer-Glo antiproliferative assay, MCF-10A. The data set is classed as cell-based. The settings on record: antiproliferative activity, non-cancerous breast epithelial cell line. Here is the method:
as §1, §2
On the technique in general: ATP-based viability assays read luminescence as a measure of living cells.

In data set [7] the test system is phosphorylation of HER2 and Akt. The data set can be described thus: Western blot of HER2 and Akt phosphorylation, A549 cells. Type of data set: cell-based. Here is the method: Binding to ECD protein at different concentrations. Kinetics of association and dissociation are shown. Inset saturation curve for binding. […] EGFR was immobilized on CM5-chip and HER2 was added as analyte. Binding of HER2 to EGFR is shown in red. […] Control represents cells without the peptide and without one of the antibodies (B & E). […] Control represents cells without the peptide and without one of the antibodies (F). […] Nucleus was stained with DAPI. III) Quantification of PLA assay fluorescence intensity. 3-6 different fields were chosen, and intensity of red fluorescence was measured using ImageJ software. […] Scale 20 μm. Magnification 40×. *p<0.05, ** p<0.01. Mean±SEM. […] The visualization of GAPDH was used to ensure equal sample loading in each lane. […] II) Quantification of Western blot images using densitometry. *p<0.05 *** P<0.001. Mean±SEM.
The phosphorylation of HER2 was measured by the p-HER2 monoclonal antibody. […] Lapatinib, an EGFR and HER2 kinase dual inhibitor were used as a positive control.
(In western blotting, separated proteins are transferred to a membrane and probed.)

Data set [8] can be described thus: thermal stability by circular dichroism and MALDI-TOF. To be noted: CD and mass spectrum, 25-75° C., in solution. The data set is classed as physicochemical. As to the method:
To confirm further, a mass spectrum of SFTI-G5 was obtained from the solution used to record the CD spectrum at different temperatures. Freeze-dried samples of different temperatures were analyzed via MALDI-TOF mass spectrometry.
A general note: CD spectra are sensitive to the conformation of chiral molecules.

The nature of data set [9]: disulfide bond stability, CD spectrum with dithiothreitol. Type of data set: physicochemical. The settings on record: presence versus absence of dithiothreitol.
The subject of data set [10] is Calu-3 xenograft tumors. The data set can be described thus: Calu-3 xenograft model of lung cancer in nude mice. The data set is classed as in vivo. As to the method:
5×10^6 Calu-3 cells suspended in serum-free medium were subcutaneously inoculated in left flank region of mice to induce lung cancer (Foxn1-nude). Peptide (8 mg/kg) was administered via intratumoral injection three times a week after 10 days, Pertuzumab was injected with a loading dose of 12 mg/kg and then 6 mg/kg as maintenance dose intraperitonially once a week, Trastuzumab and pertuzumab combination was injected at a loading dose of 12 mg/kg and then 6 mg/kg as maintenance dose once a week. […] For comparison, pertuzumab (up triangle, blue) and trastuzumab and pertuzumab combination (down triangle, red) also shown (with standard errors for n=6). […] C) PPI inhibition assessed by PLA on tumor tissue sample. […] Tumor sections were homogenized, and protein was extracted and subjected to Western blot. […] (** p<0.01). Mean±SEM.
HER2 dimerization inhibitors such as pertuzumab and trastuzumab and pertuzumab combinations were also administered as control groups (FIG. 11A). […] During the course of the experiment, the tumor size in the control xenograft group without any treatment continued to increase, reaching a diameter of ˜9 mm in 28 days (FIG. 11B).
To evaluate the phosphorylation of HER2 protein, Western blot analysis was performed on frozen tumor samples.

Data set [11] concerns T cells (splenocytes). The data set can be described thus: immunogenicity, flow cytometry T-cell proliferation (Ki-67) in primed BALB/c mice. The data set is classed as in vivo. The settings on record: BALB/c mice primed 6 mg/kg; splenocytes with 5 μM peptide, 48 h. Here is the method:
SFTI-G5 is not immunogenic in mice. Molecules that are not endogenous to the body can trigger cellular responses when administered. […] Ki-67 is a proliferation marker of nuclear protein and has been used to measure specific T-cell responses. […] The animals were sacrificed on the 13th day, and splenocytes were harvested and cultured in vitro from both control and primed groups, either in the presence or absence of the peptide. Concanavalin A (5 μg/mL), an antigen-independent mitogen known to induce T-cell proliferation, was used as a positive control.

Data set [12] concerns A549 Red-FLuc lung tumors. The data set can be described thus: experimental metastasis model of lung cancer, A549 Red-FLuc cells.

T1 sequence (P04626 23-652 limits assumed): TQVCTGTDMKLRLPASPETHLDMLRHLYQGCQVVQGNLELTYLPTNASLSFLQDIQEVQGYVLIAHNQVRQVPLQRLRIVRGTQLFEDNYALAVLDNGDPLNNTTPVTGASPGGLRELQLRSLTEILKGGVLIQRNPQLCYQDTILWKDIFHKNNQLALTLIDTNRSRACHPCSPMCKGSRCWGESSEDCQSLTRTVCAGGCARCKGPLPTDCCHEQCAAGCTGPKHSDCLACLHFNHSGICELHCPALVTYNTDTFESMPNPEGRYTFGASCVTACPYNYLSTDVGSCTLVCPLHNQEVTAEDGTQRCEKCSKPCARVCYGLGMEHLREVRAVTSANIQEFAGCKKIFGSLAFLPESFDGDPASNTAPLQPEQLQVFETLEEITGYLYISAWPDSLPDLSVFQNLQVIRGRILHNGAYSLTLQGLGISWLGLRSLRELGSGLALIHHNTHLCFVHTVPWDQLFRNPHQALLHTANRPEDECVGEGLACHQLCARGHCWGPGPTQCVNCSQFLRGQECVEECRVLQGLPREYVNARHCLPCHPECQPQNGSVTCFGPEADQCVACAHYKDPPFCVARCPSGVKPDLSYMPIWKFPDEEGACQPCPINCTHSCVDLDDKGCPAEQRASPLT

For `NCCCC[C@H](N)C(=O)NC(CC(=O)N[C@@H](Cc1ccccc1)C(=O)O)c1cccc2ccccc12` (stereo partly drawn) [Control, H2N-K(X)F-OH], the “SPR response on HER2 ECD” value in [1] is reported as “no SPR response was recorded”.

For the compound `CC[C@H](C)[C@@H]1NC(=O)[C@H](CCCNC(=N)N)NC(=O)C[C@@H](c2cccc3ccccc23)NC(=O)[C@@H]2CSSC[C@H](NC(=O)C[C@@H](c3cccc4ccccc34)NC(=O)[C@H](CCCNC(=N)N)NC(=O)[C@@H]3CCCN3C(=O)[C@@H]3CCCN3C1=O)C(=O)N[C@@H](Cc1ccccc1)C(=O)N1CCC[C@H]1C(=O)N[C@@H](CC(=O)O)C(=O)N[C@@H](CC(=O)O)C(=O)N[C@@H](Cc1ccccc1)C(=O)N2` [SFTI-G5, Cyclo(C(S-X)RIPPR(S-X)CFPDDF)], the IC50 in data set [2] was 369 nM; in data set [3] it was 280 nM; in [4] it was 73 nM; in data set [5] it was 25600 ± 1460 nM; in data set [6] it was > 50000 nM. The “total HER2 protein levels” value in data set [7] is listed as “no significant change in total HER2 protein levels”. In addition, in [7] (1 μM, 40 h, vs control), the “phosphorylation of Akt” value is “significantly inhibited the phosphorylation of Akt”. In addition, in data set [7] (1 μM, 40 h, vs control), the “phosphorylation of HER2 kinase” value was “significantly decreases the phosphorylation of HER2 kinase”. In addition, the thermal stability result in data set [8] was “stable at 75 °C; also recorded: stable up to 75 °C”. In data set [9], the “CD spectrum on addition of DTT” value was “sharp change in CD spectrum”. Moreover, in data set [10] (Calu-3 xenograft, SFTI-G5 8 mg/kg intratumoral thrice a week, antibodies 12 then 6 mg/kg once a week), the tumor growth result is on record as “delay in tumor growth that was significant compared to control; also recorded: delayed tumor growth”. In addition, the “tolerability, body weight and clinical observations” value in data set [10] (SFTI-G5 monotherapy dosing schedule) is “well-tolerated”. For the same compound, the “EGFR:HER2 dimerization in tumor sections (PLA)” value in [10] (vs control tumor sample) was “markedly diminished signals from dimerization”. The “HER2 phosphorylation in tumor samples (Western blot)” value in data set [10] (vs vehicle treatment) is recorded as “significant inhibition of HER2 phosphorylation”. Also, the “immune response: Ki-67 expression in CD3+ subsets” value in [11] is given as “did not show any significant immune response; also recorded: non-immunogenic”. The “rate of tumor growth, total flux (p/s)” value in data set [12] (6 mg/kg i.v. twice a week, vs vehicle) is listed as “decreased; also recorded: significant reduction in tumor growth”. In addition, the “H&E histology of lungs: enlarged hyperchromatic nuclei, eosinophilic cytoplasm” value in data set [12] (vs vehicle control) is “there were less”.
